Laboratory results from patent US20250388544A1, “HETEROAROMATIC INHIBITORS OF ASTACIN PROTEINASES” (VIVORYON THERAPEUTICS N.V., priority 2019, published 2025).

Experiments:
Format in all cases: biochemical
hMMP 2 = target: T1, hMMP 2 (Homo sapiens, UniProt P08253); assay: Residual enzyme activity of other metalloproteases; details: read-out: Residual enzyme activity MMP2
T1 construct: purchased Abnova
T1 sequence (P08253 110-660): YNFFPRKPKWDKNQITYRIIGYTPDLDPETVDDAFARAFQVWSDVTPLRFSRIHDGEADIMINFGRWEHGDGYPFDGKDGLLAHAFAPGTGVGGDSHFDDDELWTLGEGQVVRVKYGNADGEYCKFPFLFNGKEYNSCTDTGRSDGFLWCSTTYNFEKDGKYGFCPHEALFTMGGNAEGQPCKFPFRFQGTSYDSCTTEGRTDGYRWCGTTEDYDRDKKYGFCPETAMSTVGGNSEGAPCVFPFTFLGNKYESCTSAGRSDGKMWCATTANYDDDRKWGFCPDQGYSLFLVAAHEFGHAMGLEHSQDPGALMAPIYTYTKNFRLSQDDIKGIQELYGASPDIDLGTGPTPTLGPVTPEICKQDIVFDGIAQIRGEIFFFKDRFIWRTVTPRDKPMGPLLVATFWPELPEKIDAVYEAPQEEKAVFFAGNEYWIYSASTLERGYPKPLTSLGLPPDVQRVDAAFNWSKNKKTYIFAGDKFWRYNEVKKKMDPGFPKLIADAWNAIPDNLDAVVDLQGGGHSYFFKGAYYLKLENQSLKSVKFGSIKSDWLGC
Experimental: (§1) A typical assay of 250 μl total volume measured in black 96 well plates consisted of 100 μl buffer, 50 μl enzyme at a final concentration of 5e-8 M to 2e-10 M, 50 μl substrate (0.15 to 80 μM, in buffer, 0.5% DMSO) and 50 μl inhibitor solution (in buffer, 1% DMSO). In case of 125 μl assay volume (black 96 half area well plates) all volumes were cut in half. Enzymatic activity of ADAMs was measured in 384 well plates with 60 μl total assay volume consisting of 20 μl inhibitor, 20 μl buffer, 10 μl enzyme and 10 μl substrate.
(§2) MMPs were activated prior to measurement by APMA (p-aminophenylmercuric acetate) treatment according to manufacturer's instructions (R&D systems).

hMMP 13 = target: T2, hMMP 13 (Homo sapiens, UniProt P45452); assay: Residual enzyme activity of other metalloproteases; details: read-out: Residual enzyme activity MMP13
T2 construct: purchased R&D systems
Experimental: as §1, §2

hMeprin β = target: T3, hMeprin β (Homo sapiens, UniProt Q16820); assay: Enzymatic assay, quenched peptide substrate cleavage, method A; details: geometric mean (geometric SD factor in parentheses), read-out: Meprin beta IC50
T3 sequence (Q16820 62-701): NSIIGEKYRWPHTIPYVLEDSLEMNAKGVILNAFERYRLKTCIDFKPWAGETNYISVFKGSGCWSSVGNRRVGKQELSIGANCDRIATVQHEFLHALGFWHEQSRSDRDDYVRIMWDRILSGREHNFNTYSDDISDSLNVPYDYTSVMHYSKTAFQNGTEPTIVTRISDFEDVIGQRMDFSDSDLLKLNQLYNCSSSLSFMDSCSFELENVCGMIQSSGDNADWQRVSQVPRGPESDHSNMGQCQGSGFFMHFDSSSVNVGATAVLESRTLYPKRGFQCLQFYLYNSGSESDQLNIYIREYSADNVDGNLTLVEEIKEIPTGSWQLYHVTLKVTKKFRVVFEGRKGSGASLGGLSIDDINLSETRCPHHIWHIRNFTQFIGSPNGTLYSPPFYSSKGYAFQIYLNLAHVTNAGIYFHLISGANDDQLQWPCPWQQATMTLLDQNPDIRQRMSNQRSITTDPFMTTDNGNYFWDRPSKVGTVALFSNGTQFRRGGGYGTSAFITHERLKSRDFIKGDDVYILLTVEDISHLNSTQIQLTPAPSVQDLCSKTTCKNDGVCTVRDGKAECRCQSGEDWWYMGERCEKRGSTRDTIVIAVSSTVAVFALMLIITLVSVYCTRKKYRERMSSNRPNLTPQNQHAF

hMeprin α = target: T4, hMeprin α (Homo sapiens, UniProt Q16819); assay: as above; details: geometric mean (geometric SD factor in parentheses), read-out: Meprin alpha IC50
T4 sequence (Q16819 66-746): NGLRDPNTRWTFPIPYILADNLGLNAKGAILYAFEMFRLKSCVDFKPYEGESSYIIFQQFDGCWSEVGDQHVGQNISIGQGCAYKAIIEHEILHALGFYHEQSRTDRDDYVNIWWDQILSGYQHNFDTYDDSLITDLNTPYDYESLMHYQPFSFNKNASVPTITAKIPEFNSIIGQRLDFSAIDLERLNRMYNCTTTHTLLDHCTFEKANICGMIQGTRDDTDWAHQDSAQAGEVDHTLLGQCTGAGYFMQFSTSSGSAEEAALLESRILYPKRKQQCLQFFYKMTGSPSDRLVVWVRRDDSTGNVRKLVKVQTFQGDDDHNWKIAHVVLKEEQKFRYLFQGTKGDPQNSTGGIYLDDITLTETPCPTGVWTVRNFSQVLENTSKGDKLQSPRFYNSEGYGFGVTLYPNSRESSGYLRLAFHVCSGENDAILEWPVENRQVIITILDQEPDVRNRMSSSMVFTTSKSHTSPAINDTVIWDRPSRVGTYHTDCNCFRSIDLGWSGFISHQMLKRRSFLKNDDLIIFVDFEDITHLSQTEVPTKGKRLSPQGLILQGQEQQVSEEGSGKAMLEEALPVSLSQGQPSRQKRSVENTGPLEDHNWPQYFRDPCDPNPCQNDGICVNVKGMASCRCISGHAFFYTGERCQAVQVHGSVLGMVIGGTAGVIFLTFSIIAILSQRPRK

For `O=C(Cn1c(-c2ccccc2)nnc1-c1ccccc1)NO` [Example 7, 2-(3,5-Diphenyl-1,2,4-triazol-4-yl)ethanehydroxamic acid], the remaining activity at 10 µM (hMMP 2; 10 μM inhibitor) was 95%, the remaining activity at 200 µM (hMMP 2; 200 μM inhibitor) was 70% and the remaining activity at 10 µM (hMMP 13; 10 μM inhibitor) was 93%. For the same compound, the remaining activity at 200 µM (hMMP 13; 200 μM inhibitor) was 76%, the IC50 (hMeprin β) was 8.71 µM and the IC50 (hMeprin α) was 0.069 µM.
